Measurements from US8765666B2, “Adenovirus dodecahedron particles for delivery of pharmaceutical agents” (Instytut Bio chemii i Biofizki PAN, priority 2009, dated 2014).
Structures can show the parent of a compound that is named as a salt.

System: HeLa cells
Experiment: MTT cytotoxicity test
Settings: results not shown
Experimental: In the test, the ability of live cells to reduce the soluble yellow tetrazolium salt (MTT) to blue formazan crystals is used. […] After 3 hours, foetal bovine serum was added to a final concentration of 10%. After various incubation times at 37° C., the incubation medium was removed and 100 μL EMEM containing 0.5 mg/mL MTT (Sigma) was added. The plates were incubated according to the manufacturer's instructions; optical density measurements were carried out using an HTi reader (Biotek, VT Winooski, USA). The number of live cells was calculated according to the protocol (Mosmann, 1983).

Cc1c(N)nc(C(CC(N)=O)NCC(N)C(N)=O)nc1C(=O)NC(C(=O)NC(C)C(O)C(C)C(=O)NC(C(=O)NCCc1nc(-c2nc(C(=O)NCCCNCCCCN)cs2)cs1)C(C)O)C(OC1OC(CO)C(O)C(O)C1OC1OC(CO)C(O)C(OC(N)=O)C1O)c1c[nH]cn1 (stereo not shown) [BLM, Bleomycin A5 hydrochloride]
free BLM concentration giving cell mortality similar to Dd-BLM: 8 µM
